# Data taken from ChEMBL document CHEMBL3885861, “Open TG-GATES”.
# Organism: Rattus norvegicus
# Test: Open TG-GATES - Regimen: Single
# Type: toxicity, organism-based, Sprague-Dawley
# Set-up: regimen Single, gender Male, age 6 weeks
# Details: in vivo, po, 20 mg/kg, route gavage, dose level High; for KIDNEY_L / KIDNEY_R / KIDNEY_TOTAL: tissue Kidney; for LIVER: tissue Liver; for ALP / ALT / AST / BUN / CRE / Ca / Cl / DBIL / GLC / IP / K / LDH / Na / PL / RALB / TBIL / TC / TG / TP / gamma-GTP: tissue Plasma
smiles,measurement,setting,value
OCCN1CCN(CCCN2c3ccccc3Sc3ccc(C(F)(F)F)cc32)CC1 [FLUPHENAZINE],TERMINAL_BW,3 h,197.6 g
same,APTT,"3 h, tissue Blood",16.7 s
same,Bas,"3 h, tissue Blood",0%
same,Eos,"3 h, tissue Blood",0.8%
same,Fbg,"3 h, tissue Blood",205.4 mg/dL
same,Hb,"3 h, tissue Blood",12.9 g/dL
same,Lym,"3 h, tissue Blood",81.6%
same,MCH,"3 h, tissue Blood",21.4 pg
same,MCHC,"3 h, tissue Blood",33%
same,MCV,"3 h, tissue Blood",64.9 fL
same,Mono,"3 h, tissue Blood",4.4%
same,Neu,"3 h, tissue Blood",13.6%
same,PT,"3 h, tissue Blood",12.7 s
same,Plat,"3 h, tissue Blood",111.6 x10_4/uL
same,RBC,"3 h, tissue Blood",600.6 x10_4/ul
same,Ret,"3 h, tissue Blood",9.2%
same,WBC,"3 h, tissue Blood",64.5 x10_2/uL
same,KIDNEY_L,3 h,0.9 g
same,KIDNEY_R,3 h,0.9 g
same,KIDNEY_TOTAL,3 h,1.8 g
same,LIVER,3 h,9.2 g
same,ALP,3 h,781.6 IU/L
same,ALT,3 h,29.4 IU/L
same,AST,3 h,58 IU/L
same,BUN,3 h,10 mg/dL
same,CRE,3 h,0.5 mg/dL
same,Ca,3 h,10.7 mg/dL
same,Cl,3 h,107.4 meq/L
same,DBIL,3 h,0.006 mg/dL
same,GLC,3 h,225.6 mg/dL
same,IP,3 h,10.6 mg/dL
same,K,3 h,4.3 meq/L
same,LDH,3 h,145.2 IU/L
same,Na,3 h,139 meq/L
same,PL,3 h,132 mg/dL
same,RALB,3 h,3.7 g/dL
same,TBIL,3 h,0.3 mg/dL
same,TC,3 h,74.6 mg/dL
same,TG,3 h,33.8 mg/dL
same,TP,3 h,5.3 g/dL
same,gamma-GTP,3 h,1.6 IU/L
same,TERMINAL_BW,6 h,194.7 g
same,APTT,"6 h, tissue Blood",16.3 s
same,Bas,"6 h, tissue Blood",0%
same,Eos,"6 h, tissue Blood",0.4%
same,Fbg,"6 h, tissue Blood",205.8 mg/dL
same,Hb,"6 h, tissue Blood",12.8 g/dL
same,Lym,"6 h, tissue Blood",79%
same,MCH,"6 h, tissue Blood",21.9 pg
same,MCHC,"6 h, tissue Blood",32.9%
same,MCV,"6 h, tissue Blood",66.4 fL
same,Mono,"6 h, tissue Blood",6.4%
same,Neu,"6 h, tissue Blood",14.6%
same,PT,"6 h, tissue Blood",12.3 s
same,Plat,"6 h, tissue Blood",100.1 x10_4/uL
same,RBC,"6 h, tissue Blood",587.4 x10_4/ul
same,Ret,"6 h, tissue Blood",7.7%
same,WBC,"6 h, tissue Blood",59.6 x10_2/uL
same,KIDNEY_L,6 h,0.9 g
same,KIDNEY_R,6 h,0.9 g
same,KIDNEY_TOTAL,6 h,1.8 g
same,LIVER,6 h,8.8 g
same,ALP,6 h,839.8 IU/L
same,ALT,6 h,32 IU/L
same,AST,6 h,60.2 IU/L
same,BUN,6 h,10.6 mg/dL
same,CRE,6 h,0.5 mg/dL
same,Ca,6 h,10 mg/dL
same,Cl,6 h,107.4 meq/L
same,DBIL,6 h,0.018 mg/dL
same,GLC,6 h,215.2 mg/dL
same,IP,6 h,9.9 mg/dL
same,K,6 h,4.3 meq/L
same,LDH,6 h,171.6 IU/L
same,Na,6 h,138 meq/L
same,PL,6 h,125.6 mg/dL
same,RALB,6 h,3.5 g/dL
same,TBIL,6 h,0.4 mg/dL
same,TC,6 h,76 mg/dL
same,TG,6 h,16.6 mg/dL
same,TP,6 h,5.3 g/dL
same,gamma-GTP,6 h,1.2 IU/L
same,TERMINAL_BW,9 h,190.3 g
same,APTT,"9 h, tissue Blood",16.3 s
same,Bas,"9 h, tissue Blood",0%
same,Eos,"9 h, tissue Blood",0.2%
same,Fbg,"9 h, tissue Blood",214.8 mg/dL
same,Hb,"9 h, tissue Blood",12.7 g/dL
same,Lym,"9 h, tissue Blood",76.8%
same,MCH,"9 h, tissue Blood",21.3 pg
same,MCHC,"9 h, tissue Blood",33.1%
same,MCV,"9 h, tissue Blood",64.4 fL
same,Mono,"9 h, tissue Blood",6%
same,Neu,"9 h, tissue Blood",16.4%
same,PT,"9 h, tissue Blood",12.3 s
same,Plat,"9 h, tissue Blood",113.7 x10_4/uL
same,RBC,"9 h, tissue Blood",594 x10_4/ul
same,Ret,"9 h, tissue Blood",8.4%
same,WBC,"9 h, tissue Blood",72.7 x10_2/uL
same,KIDNEY_L,9 h,0.9 g
same,KIDNEY_R,9 h,0.9 g
same,KIDNEY_TOTAL,9 h,1.8 g
same,LIVER,9 h,7.8 g
same,ALP,9 h,741.8 IU/L
same,ALT,9 h,28.8 IU/L
same,AST,9 h,56 IU/L
same,BUN,9 h,9.6 mg/dL
same,CRE,9 h,0.5 mg/dL
same,Ca,9 h,10 mg/dL
same,Cl,9 h,107 meq/L
same,DBIL,9 h,0.03 mg/dL
same,GLC,9 h,197 mg/dL
same,IP,9 h,9.6 mg/dL
same,K,9 h,4.2 meq/L
same,LDH,9 h,157.8 IU/L
same,Na,9 h,139.2 meq/L
same,PL,9 h,135 mg/dL
same,RALB,9 h,3.7 g/dL
same,TBIL,9 h,0.3 mg/dL
same,TC,9 h,89 mg/dL
same,TG,9 h,11.2 mg/dL
same,TP,9 h,5.3 g/dL
same,gamma-GTP,9 h,1.2 IU/L
same,TERMINAL_BW,24 h,176 g
same,APTT,"24 h, tissue Blood",16.6 s
same,Bas,"24 h, tissue Blood",0%
same,Eos,"24 h, tissue Blood",0.2%
same,Fbg,"24 h, tissue Blood",206.6 mg/dL
same,Hb,"24 h, tissue Blood",14.7 g/dL
same,Ht,"24 h, tissue Blood",44.3%
same,Lym,"24 h, tissue Blood",81.2%
same,MCH,"24 h, tissue Blood",21.5 pg
same,MCHC,"24 h, tissue Blood",33.2%
same,MCV,"24 h, tissue Blood",64.8 fL
same,Mono,"24 h, tissue Blood",7.6%
same,Neu,"24 h, tissue Blood",10.6%
same,PT,"24 h, tissue Blood",12.2 s
same,Plat,"24 h, tissue Blood",125.2 x10_4/uL
same,RBC,"24 h, tissue Blood",684 x10_4/ul
same,Ret,"24 h, tissue Blood",6.6%
same,WBC,"24 h, tissue Blood",78.6 x10_2/uL
same,KIDNEY_L,24 h,0.9 g
same,KIDNEY_R,24 h,0.9 g
same,KIDNEY_TOTAL,24 h,1.8 g
same,LIVER,24 h,7.5 g
same,ALP,24 h,847.4 IU/L
same,ALT,24 h,27.8 IU/L
same,AST,24 h,69.6 IU/L
same,BUN,24 h,23.8 mg/dL
same,CRE,24 h,0.5 mg/dL
same,Ca,24 h,10.5 mg/dL
same,Cl,24 h,105.4 meq/L
same,DBIL,24 h,0.012 mg/dL
same,GLC,24 h,176 mg/dL
same,IP,24 h,9 mg/dL
same,K,24 h,4.9 meq/L
same,LDH,24 h,171.6 IU/L
same,Na,24 h,138.6 meq/L
same,PL,24 h,138.8 mg/dL
same,RALB,24 h,4.3 g/dL
same,TBIL,24 h,0.3 mg/dL
same,TC,24 h,87.6 mg/dL
same,TG,24 h,44.6 mg/dL
same,TP,24 h,6.1 g/dL
same,gamma-GTP,24 h,1.2 IU/L
